Where “and” joins values, the source holds several entries; their conditions need not be identical. Equal entries are not always repeated. Where two headings read alike, the source gives them in different places.
What was measured:
rSNORF33 [1] = target: T1, rSNORF33 (Rattus norvegicus, UniProt Q923Y9); assay: [3H]-TYR binding (saturation and displacement) to rSNORF33-transfected COS-7 membranes; parameters: expressed in transfected cells; host or cells: COS-7 (transient); settings: for Ki: rSNORF33 in transfected COS-7 membranes, 2–4 experiments, read-out: Mean Ki ± S.D.M., displacement of [3H]-tyramine
T1 sequence (Q923Y9 whole entry): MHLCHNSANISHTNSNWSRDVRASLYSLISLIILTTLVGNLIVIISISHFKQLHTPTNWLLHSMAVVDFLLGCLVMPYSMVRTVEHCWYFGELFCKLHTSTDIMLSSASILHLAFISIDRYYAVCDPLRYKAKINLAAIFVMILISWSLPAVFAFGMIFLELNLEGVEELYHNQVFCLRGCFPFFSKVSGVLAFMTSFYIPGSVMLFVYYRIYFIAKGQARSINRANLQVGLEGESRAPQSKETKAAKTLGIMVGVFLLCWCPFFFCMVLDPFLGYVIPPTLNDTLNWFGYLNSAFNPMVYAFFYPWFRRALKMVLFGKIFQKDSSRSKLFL
Experimental: (§1) Radioligand binding assays were performed by diluting membranes prepared from cells expressing the receptor (with co-expression of the rat G-protein alpha S subunit for human SNORF33) in 25 mM Gly-Gly buffer (Sigma, pH=7.4 @ 0° C.) containing 5 mM ascorbate and 10 μM pargyline (final protein concentration in assay=100-300 μg/ml). Membranes were then incubated with either [^3H]-TYR (American Radiochemicals, specific activity 60 mCi/μmole) or [^3H]-T (Amersham, specific activity 98 mCi/μmole) in the presence or absence of competing ligands on ice for 30 min in a total volume of 250 μl in 96 well microtiter plates. The bound ligand was separated from free by filtration through GF/B filters presoaked in 0.5% polyethyleneimine (PEI), using Tomtec (Wallac) or Brandel Cell Harvester vacuum filtration device. After addition of Ready Safe (Beckman) scintillation fluid, bound radioactivity was quantitated using a Trilux (Wallac) scintillation counter (approximately 20% counting efficiency of bound counts). Data was fit to non-linear curves using GraphPad Prism.
(§2) In this manner, agonist or antagonist compounds that bind to the receptor may be identified as they inhibit the binding of the labeled ligand to the membrane protein of cells expressing the said receptor. Non-specific binding was defined as the amount of radioactivity remaining after incubation of membrane protein in the presence of 10 μM of the unlabeled amine corresponding to the radioligand used. In equilibrium saturation binding assays, membrane preparations or intact cells transfected with the receptor are incubated in the presence of increasing concentrations of the labeled compound to determine the binding affinity of the labeled ligand. The binding affinities of unlabeled compounds may be determined in equilibrium competition binding assays, using a fixed concentration of labeled compound in the presence of varying concentrations of the displacing ligands.

hSNORF33 = target: T2, hSNORF33 (Homo sapiens, UniProt Q96RJ0); assay: [3H]-TYR binding (saturation and displacement) to human SNORF33 COS-7 membranes; parameters: expressed in transfected cells; host or cells: COS-7 (membranes); settings: for Ki: human SNORF33 in transfected COS-7 membranes
T2 sequence (Q96RJ0 1-339): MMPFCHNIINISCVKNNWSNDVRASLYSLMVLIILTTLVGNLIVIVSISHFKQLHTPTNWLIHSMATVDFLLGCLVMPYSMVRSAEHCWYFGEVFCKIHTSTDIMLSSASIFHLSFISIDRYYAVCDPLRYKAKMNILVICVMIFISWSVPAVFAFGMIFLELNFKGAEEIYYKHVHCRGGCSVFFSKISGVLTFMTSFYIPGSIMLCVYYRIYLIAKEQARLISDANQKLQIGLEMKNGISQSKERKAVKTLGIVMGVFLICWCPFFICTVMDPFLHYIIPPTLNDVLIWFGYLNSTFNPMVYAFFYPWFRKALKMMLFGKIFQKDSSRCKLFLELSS
Experimental: as §1, with “[^3H]-TYR and [^3H]-T binding assays were performed essentially as described by Mallard et al. (1992), with minor modifications. Radioligand” for “Radioligand”
as §2

rSNORF33 [2] = target: T1, rSNORF33; assay: Intracellular cAMP release in rSNORF33-transfected COS-7 cells; type: cell-based; parameters: expressed in transfected cells; host or cells: COS-7 (transient); settings: for Agonist activity at cloned rSNORF33 receptor: data not shown
Experimental: The receptor-mediated stimulation or inhibition of cyclic AMP (cAMP) formation may be assayed in cells expressing the mammalian receptors. Cells are plated in 96-well plates or other vessels and preincubated in a buffer such as HEPES buffered saline (NaCl (150 mM), CaCl2 (1 mM), KCl (5 mM), glucose (10 mM)) supplemented with a phosphodiesterase inhibitor such as 5 mM theophylline, with or without protease inhibitor cocktail (For example, a typical inhibitor cocktail contains 2 μg/ml aprotinin, […] leupeptin, and 10 μg/ml phosphoramidon.) for 20 min at 37° C., in 5% CO2. Test compounds are added with or without […] forskolin and incubated for an additional 10 min at 37° C. The medium is then aspirated and the reaction stopped by the addition of 100 mM HCl or other methods. The plates are stored at 4° C. for 15 min, and the cAMP content in the stopping solution is measured by radioimmunoassay. Radioactivity may be quantified using a gamma counter equipped with data reduction software. Specific modifications may be performed to optimize the assay for the receptor or to alter the detection method of cAMP.
COS-7 cells were transiently transfected with rSNORF33 gene using the calcium phosphate method and plated in 96-well plates. 48 hours after transfection, cells were washed twice with Dulbecco's phosphate buffered saline (PBS) supplemented with 10 mM HEPES, 10 mM glucose, 5 mM theophylline and 10 μM pargyline and were incubated in the same buffer for 20 min at 37° C., in […] 5% CO2. Test compounds were added and cells were incubated for an additional 10 min at 37° C. The medium was then aspirated and the reaction stopped by the addition of 100 mM HCl. The plates were stored at −20° C. for 2-5 days. For cAMP measurement, plates were thawed and the cAMP content in each well was measured by radioimmunoassay cAMP Scintillation Proximity Assay (Amersham Pharmacia Biotech). Radioactivity was quantified using microbeta Trilux counter (Wallac).

rSNORF33 [3] = target: T1, rSNORF33; assay: Cl- currents in Xenopus oocytes expressing rSNORF33 and CFTR (voltage clamp); type: cell-based; settings: for Cl- currents elicited: at 100 μM
Experimental: Female Xenopus laevis (Xenopus-1, Ann Arbor, Mich.) were anesthetized in 0.2% tricain (3-aminobenzoic acid ethyl ester, Sigma Chemical Corp.) and a portion of ovary was removed using aseptic technique (Quick and Lester, 1994). Oocytes were defolliculated, using 3 mg/ml collagenase (Worthington Biochemical Corp., Freehold, N.J.) in a solution containing 82.5 mM NaCl, 2 mM KCl, 1 mM MgCl2 and 5 mM HEPES, pH 7.5, and injected (Nanoject, Drummond Scientific, Broomall, Pa.) 24 h later with 50-70 nl of individual mRNAs or mRNA mixtures (see below).
Elevation of intracellular cAMP is monitored in oocytes by expression of the cystic fibrosis transmembrane conductance regulator (CFTR) whose Cl^−-selective pore opens in response to phosphorylation by protein kinase A (Riordan, 1993). To prepare RNA transcripts for expression in oocytes, a template was created by PCR using 5′ and 3′ primers derived from the published sequence of the CFTR gene (Riordan, 1993). The 5′ primer included the sequence coding for T7 polymerase so that transcripts could be generated directly from the PCR products without cloning. Oocytes were injected with 10 ng of CFTR mRNA in addition to 10-15 ng mRNA for SNORF33. Electrophysiological recordings were made after a 2-3 day incubation at 18° C.
Dual electrode voltage clamp (“GeneClamp”, Axon Instruments Inc., Foster City, Calif.) was performed using 3 M KCl-filled glass microelectrodes having resistances of 1-3 Mohms. Unless otherwise specified, oocytes were voltage clamped at a holding potential of −80 mV. During recordings, oocytes were bathed in continuously flowing (1-3 ml/min) medium containing 96 mM NaCl, 2 mM KCl, 1.8 mM CaCl2, 1 mM MgCl2, and 5 mM HEPES, pH 7.5 (ND96). […] Experiments were carried out at room temperature. All values are expressed as mean±standard error of the mean.

rSNORF33 [4] = target: T1, rSNORF33; assay: as above; type: cell-based; settings: test compound 100 μM except where noted; 100 nM TYR
mouse SNORF33 = target: T3, mouse SNORF33 (Mus musculus, UniProt Q923Y8); assay: [3H]-TYR binding (saturation and displacement) to mouse SNORF33 COS-7 membranes; settings: for Ki: mouse SNORF33, displacement of [3H]TYR, n=2, read-out: Average Ki
T3 construct: expressed in transfected cells; host or cells: COS-7 (membranes)
T3 sequence (Q923Y8 whole entry): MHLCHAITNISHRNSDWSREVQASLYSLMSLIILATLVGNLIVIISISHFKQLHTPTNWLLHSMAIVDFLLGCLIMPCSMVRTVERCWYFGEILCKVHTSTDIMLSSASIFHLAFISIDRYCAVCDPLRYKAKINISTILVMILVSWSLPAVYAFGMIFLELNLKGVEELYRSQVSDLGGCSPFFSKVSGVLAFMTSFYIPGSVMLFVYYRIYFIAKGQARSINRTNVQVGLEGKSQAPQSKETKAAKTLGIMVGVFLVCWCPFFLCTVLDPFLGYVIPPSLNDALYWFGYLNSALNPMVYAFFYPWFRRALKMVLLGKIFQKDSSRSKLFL
Experimental: as §1, with “[^3H]-TYR and [^3H]-T binding assays were performed essentially as described by Mallard et al. (1992), with minor modifications. Radioligand” for “Radioligand”
as §2

[5] = read-out: Mean Ki ± S.D.M., displacement of [3H]-tyramine
[6] = transiently transfected COS-7 cells, 3–8 experiments, read-out: Mean EC50 ± S.E.M., stimulation of rSNORF33 measured by intracellular cAMP release
[7] = read-out: Ki, displacement of [3H]-tyramine

`NCCc1cccc(O)c1` [3-OH-PEA] gave a Ki (rSNORF33 [1]) of 529 ± 236 nM and a Ki (hSNORF33; [5]) of 79 ± 16 nM.

`NCCc1c[nH]c2ccc(F)cc12` [5-Fluoro-Tryptamine] was tested, and the EC50 (rSNORF33 [2]; [6]) was 232 ± 38 nM.

In the case of `COc1ccc2[nH]cc(CCN)c2c1` [5-Methoxy-Tryptamine], the EC50 (rSNORF33 [2]; [6]) is reported as 414 ± 161 nM and the Ki (rSNORF33 [1]) is reported as 209 ± 68 nM.

With `Cc1ccc2[nH]cc(CCN)c2c1` [5-Methyl-Tryptamine] the EC50 (rSNORF33 [2]; [6]) was 752 ± 285 nM.

Work on `CNCCCN1c2ccccc2CCc2ccccc21` [Desipramine] yielded an EC50 (rSNORF33 [2]; [6]) of 4300 ± 1870 nM.

With `NCCc1ccc(O)c(O)c1` [Dopamine (DA), Dopamine] the “Cl- currents elicited” value (rSNORF33 [3]) was “more weakly”.

`NCCC(=O)c1ccccc1N` [Kynuramine] gave an EC50 (rSNORF33 [2]; [6]) of 90 ± 20 nM, a Ki (rSNORF33 [1]) of 485 ± 9 nM and a Ki (hSNORF33; [5]) of 1390 ± 810 nM.

With `CN[C@@H](C)Cc1ccccc1` [Methamphetamine] the EC50 (rSNORF33 [2]; [6]) was 115 ± 66 nM, the Ki (rSNORF33 [1]) was 391 ± 246 nM and the Ki (hSNORF33; [5]) was 189 ± 102 nM.

With `NC[C@H](O)c1ccc(O)c(O)c1` [NE, norepinephrine] the “Agonist activity at cloned rSNORF33 receptor” value (rSNORF33 [2]) was “inactive”.

In the case of `CC(COc1ccccc1)N(CCCl)Cc1ccccc1` (stereo not drawn) [Phenoxybenzamine], the “Antagonism of TYR stimulation of rSNORF33” value (“Antagonism” for short) (rSNORF33 [4]) is reported as “irreversible inhibition”.

For `CC(N)C(O)c1ccccc1` (stereo not drawn) [Phenylpropanolamine (PPA), Phenylpropanolamine], the EC50 (rSNORF33 [2]) was 1800 ± 1380 nM.

For `NCCc1c[nH]c2ccc(O)cc12` [Serotonin (5-HT), 5-Hydroxytryptamine], the “Fold less potent than the three trace amines (TYR, PEA, T) in activating rSNORF33” value (rSNORF33 [2]; cAMP assay) was 70 fold, the EC50 (rSNORF33 [2]; [6]) was 1240 ± 526 nM and the “Cl- currents elicited” value (rSNORF33 [3]) was “more weakly”. It also gave an EC50 (rSNORF33 [3]; oocytes expressing rSNORF33 and CFTR, -80 mV, mean ± S.E.M., read-out: Calculated EC50, Cl- current) of 3776 ± 3.17 nM and a Ki (rSNORF33 [1]) of 976 ± 120 nM.

With `NCCc1ccc(O)cc1` [[^3H]-TYR] the “Specific binding as % of total binding” value (mouse SNORF33; at about 15 nM [3H]-TYR, mouse SNORF33) was “approximately 94%”, the “Bmax, saturation binding” value (mouse SNORF33; mouse SNORF33 membranes) was 1090 fmol/mg protein and 848 fmol/mg protein and the Specific binding (rSNORF33 [1]; 20 nM radioligand, rSNORF33) was 90%. For the same compound, the “Bmax, saturation binding” value (rSNORF33 [1]; rSNORF33 COS-7 membranes, n=2) was 1400 fmol/mg protein and 1164 fmol/mg protein, the Kd (rSNORF33 [1]; rSNORF33 COS-7 membranes, n=2) was 12.5 nM and 14.8 nM and the “Specific binding as % of total binding” value (hSNORF33; at about 15 nM [3H]-TYR, human SNORF33) was roughly 70%. For the same compound, the “Bmax, saturation binding” value (hSNORF33; human SNORF33 membranes) was 440 fmol/mg protein and 603 fmol/mg protein.

With `c1ccc(C2CC2)c(OCC2=NCCN2)c1` [cirazoline] the “Inhibition of the response to TYR” value (rSNORF33 [3]; test compound 100 μM except where noted, 100 nM TYR (EC80)) was “greater than 90%”.

With `NCCc1c[nH]cn1` [histamine] the “Agonist activity at cloned rSNORF33 receptor” value (rSNORF33 [2]) was “inactive”.

For `Cl.Cl.Clc1cccc(N2CCNCC2)c1` [m-CPP, 1-(3-chlorophenyl)piperazine dihydrochloride], the Ki (mouse SNORF33) was 3550 nM, the Ki (rSNORF33 [1]) was 83 nM and the “Displacement of [3H]TYR binding” value (hSNORF33; human SNORF33, up to 10 μM) was “no displacement”. The Ki (hSNORF33; [7]) was greater than 10000 nM.

`CN1C[C@H](CNC(=O)OCc2ccccc2)C[C@@H]2c3cccc4c3c(cn4C)C[C@H]21` [metergoline] was tested, and the “Antagonism” value (rSNORF33 [4]) was “significantly block”.

`CN1CCN2c3ccccc3Cc3ccccc3C2C1` (stereo not drawn) [mianserin] was tested, and the “Antagonism” value (rSNORF33 [4]) was “did not significantly inhibit”.

`Cc1ccc(N(CC2=NCCN2)c2cccc(O)c2)cc1` [phentolamine] was tested, and the “Antagonism” value (rSNORF33 [4]) was “agonist effect”.

`CC(C)NCC(O)COc1cccc2[nH]ccc12` (stereo not drawn) [pindolol] was tested, and the “Antagonism” value (rSNORF33 [4]) was “significantly block”.

`C1CNCCN1` [piperazine] gave a Ki (mouse SNORF33) of 1950 nM, a Ki (rSNORF33 [1]) of 82 nM and a Ki (hSNORF33; [7]) greater than 10000 nM.

With `CC(C)NCC(O)COc1cccc2ccccc12` (stereo not drawn) [propanolol] the “Antagonism” value (rSNORF33 [4]) was “significantly block”.

In the case of `COC(=O)[C@H]1[C@H]2C[C@H]3c4[nH]c5ccccc5c4CCN3C[C@H]2CC[C@@H]1O` [rauwolscine], the “Antagonism” value (rSNORF33 [4]) is reported as “did not significantly inhibit”.

In the case of `COC(=O)[C@@H]1[C@H]2C[C@H]3c4[nH]c5ccccc5c4CCN3C[C@@H]2CC[C@@H]1O` [yohimbine], the “Antagonism” value (rSNORF33 [4]) is reported as “did not significantly inhibit”.
